# Data: patent US20220265629A1, “TREATMENT OF SYSTOLIC DYSFUNCTION AND HEART FAILURE WITH REDUCED EJECTION FRACTION WITH THE COMPOUND (R)-4-(1-((3-(DIFLUOROMETHYL)-1-METHYL-1H-PYRAZOL-4-YL)SULFONYL)-1-FLUOROETHYL)-N-(ISOXAZOL-3-YL)PIPERIDINE-1-CARBOXAMIDE” (MyoKardia, Inc., priority 2019, published 2022)
# Where “and” joins values, the source holds several entries; their conditions need not be identical. Identical values can stand only once.
# Assay: HFrEF study Part 2 (MAD Cohorts A-D): plasma pharmacokinetics
# Format: in vivo, human
# Settings: for AUC_TAU: steady state
# Excerpt: This was a randomized, parallel-group, DB, placebo-controlled, adaptive design, sequential ascending (oral) multiple-close study in stable patients with heart failure. Four MAD Cohorts (A, B, C, D) were enrolled (FIG. 5B). An SRC reviewed results from each cohort and determined the close and confirmed initial sample size for the subsequent cohort. Additionally, the first 3 patients in each cohort had LVEF≥25%; the SRC reviewed preliminary safety data from these patients and decided whether to open cohort enrollment to patients with LVEF<25%.
# After Screening and qualification, patients were confined to a clinical testing facility from Day 1 (Check-in) to Day 11. Each patient initially received placebo BID for 2 days (Days 1 and 2) in single-blinded manner (“run-in” during acclimatization to confinement in the Clinical Testing Unit) prior to receiving the randomized DB study drug treatment on Day 3. All patients then received either placebo or active Compound I for 7 days (Days 3 through 9), with a follow-up period with patients discharged from the unit on Day 11. A final follow-up clinic visit was conducted on Day 16. More than one patient could be closed in a cohort at the same time or during the same week depending on administrative issues, i.e., capacity and scheduling.
# Patients were closed twice daily (every 12 hours). Doses could occur±2 hours from scheduled dosing times as long as closes were separated by at least 10 hours and by no more than 14 hours. The exception to the twice daily dosing was on Day 9 (last dose of randomized DB study drug treatment). On Day 9, a single morning close was administered.
# During the study, multiple evaluations were performed that included: serial TTE assessments (11-14 TTEs per patient on Days 1, 2, 3, 4, 7, 9, 10 and 11); PK sampling (PK sample collected concomitantly with every post-randomization echocardiogram); ECGs (on Days 2, 3, 4, 7, 9, 10, 11 and 16); troponin (collected concomitantly with every post-randomization ECG); and safety laboratory assessments. Confined patients underwent continuous telemetry. Holter monitoring was performed in all patients at baseline (Days 1-2) and at the end of double-blind treatment (Days 7-9). Vital signs were collected daily.
# Study medication consisted of Compound I 5 mg tablets, 25 mg tablets, 100 mg tablets, or matching placebo tablets. In Part 1 (SAD), Compound I or placebo was administered after an overnight fast (at least 6 hours), while in Part 2 (MAD), Compound I was administered after a 2 hour fast (Cohort A) or with food (Cohorts B, C, and D). The close was ingested with a minimum of 240 mL of water, but more water was ingested as needed. The entire close was administered over a period of up to 15 minutes. The time of close used to determine future assessments was the time the last tablet was taken. In the cohorts for Part 2 (MAD), a BID regimen was used.
# In Part 2 (MAD), Cohort A patients fasted for 2 hours before and 2 hours after dosing. For example, if morning dosing occurred at 8 AM, patients could have a snack at 6 AM and a full breakfast at 10 AM. If afternoon dosing occurred at 8 PM, patients could have dinner at 6 PM and a snack at 10 PM. […] Cohort B, C, and D patients ingested food with each close.
# [1] = Cohort A + C (n = 14), 75 mg BID
# [2] = MAD Cohort A, 75 mg BID (4 h fasting), Mean
# [3] = MAD Cohort A, 75 mg BID (4 h fasting), individual subjects
# [4] = MAD Cohort B, 50 mg BID (with food), Mean
# [5] = MAD Cohort B, 50 mg BID (with food), individual subjects
# [6] = MAD Cohort C, 75 mg BID (with food), Mean
# [7] = MAD Cohort C, 75 mg BID (with food), individual subjects
structure (smiles),measurement,setting,value
"Cn1cc(S(=O)(=O)[C@@](C)(F)C2CCN(C(=O)Nc3ccon3)CC2)c(C(F)F)n1 [Compound I, (R)-4-(1-((3-(difluoromethyl)-1-methyl-1H-pyrazol-4-yl)sulfonyl)-1-fluoroethyl)-N-(isoxazol-3-yl)piperidine-1-carboxamide]","Post-dose maximum concentration, steady-state (Day 9) plasma",[1],3862 (27.7%) ng/mL
same,"Pre-dose concentration, steady-state (Day 9) plasma",[1],2930 (36.8%) ng/mL
same,time to steady-state plasma concentrations,"Cohort A, 75 mg twice daily, fasted",approximately 3 days
same,"Post-dose maximum concentration, steady-state (Day 9) plasma","Cohort B (n = 8), 50 mg BID",2735 (17.5%) ng/mL
same,"Pre-dose concentration, steady-state (Day 9) plasma","Cohort B (n = 8), 50 mg BID",2096 (20.0%) ng/mL
same,time to steady-state plasma concentrations,"Cohort B, 50 mg twice daily with food",approximately 4 days
same,"Post-dose maximum concentration, steady-state (Day 9) plasma","Cohort D (n = 6), 100 mg BID",5560 (22.8%) ng/mL
same,"Pre-dose concentration, steady-state (Day 9) plasma","Cohort D (n = 6), 100 mg BID",4694 (25.5%) ng/mL
same,Accumulation Ratio AUC tau,[2],3.74
same,Accumulation Ratio Cmax,[2],3.53
same,Accumulation_Index,[2],3.11
same,"Cavg, ss",[2],3420 ng/mL
same,"Cmin, SS",[2],2758 ng/mL
same,"AUCtau, Day 1",[3],12360 ng·h/mL and 8025 ng·h/mL and 9501 ng·h/mL and 11570 ng·h/mL
same,Accumulation Ratio AUC tau,[3],4.37 and 3.96 and 3.15* and 2.80 and 4.27 and 3.31
same,Accumulation Ratio Cmax,[3],4.32 and 3.46 and 2.51* and 2.80 and 4.06 and 2.99
same,Accumulation_Index,[3],3.82 and 3.89 and 2.79* and 2.21 and 3.00 and 2.61
same,"Cavg, ss",[3],3846 ng/mL and 4079 ng/mL and 2108* ng/mL and 2215 ng/mL and 3774 ng/mL and 3188 ng/mL
same,"Cmax, Day 1",[3],1360 ng/mL and 958 ng/mL and 981 ng/mL and 1100 ng/mL and 1250 ng/mL
same,"Cmax, SS",[3],4710 ng/mL and 2400* ng/mL and 2750 ng/mL and 4470 ng/mL and 3740 ng/mL
same,"Cmin, SS",[3],3050 ng/mL and 3510 ng/mL and 1450* ng/mL and 1740 ng/mL and 2880 ng/mL and 2610 ng/mL
same,"t1/2, λz",[3],27.41 hr and 28.02 hr and 18.78* hr and 13.84 hr and 20.55 hr and 17.21 hr
same,AUC_TAU,[3],48950 hr*ng/mL and 25290* hr*ng/mL and 26580 hr*ng/mL and 45290 hr*ng/mL and 38250 hr*ng/mL
same,Accumulation Ratio AUC tau,[4],4.09
same,Accumulation Ratio Cmax,[4],3.57
same,Accumulation_Index,[4],3.55
same,"Cavg, ss",[4],2336 ng/mL
same,"Cmin, SS",[4],1989 ng/mL
same,"AUCtau, Day 1",[5],5050 ng·h/mL and 6754 ng·h/mL and 8138 ng·h/mL and 8855 ng·h/mL and 7249 ng·h/mL and 6347 ng·h/mL and 8620 ng·h/mL
same,Accumulation Ratio AUC tau,[5],4.00 and 6.37 and 5.22 and 3.26 and 4.07 and 3.30 and 3.63 and 2.88
same,Accumulation Ratio Cmax,[5],3.16 and 5.33 and 4.78 and 3.08 and 4.02 and 2.64 and 3.05 and 2.51
same,Accumulation_Index,[5],3.63 and 5.03 and 4.46 and 2.93 and 3.51 and 2.42 and 3.20 (2×) and 4.23*
same,"Cavg, ss",[5],2478 ng/mL and 2681 ng/mL and 2940 ng/mL and 2213 ng/mL and 3002 ng/mL and 1991 ng/mL and 1919 ng/mL and 2070 ng/mL and 1725* ng/mL
same,"Cmax, Day 1",[5],548 ng/mL and 674 ng/mL and 830 ng/mL and 891 ng/mL and 901 ng/mL and 696 ng/mL and 974 ng/mL
same,"Cmax, SS",[5],2920 ng/mL and 3220 ng/mL and 2560 ng/mL and 3580 ng/mL and 2380 ng/mL and 2120 ng/mL and 2440 ng/mL and 2060* ng/mL
same,"Cmin, SS",[5],1900 ng/mL and 2380 ng/mL and 2640 ng/mL and 1810 ng/mL and 2370 ng/mL and 1440 ng/mL and 1720 ng/mL and 1650 ng/mL and 1320* ng/mL
same,"t1/2, λz",[5],25.81 hr and 37.48 hr and 32.77 hr and 19.93 hr and 24.77 hr and 15.57 hr and 22.23 hr and 22.21 hr and 30.87* hr
same,AUC_TAU,[5],32170 hr*ng/mL and 35280 hr*ng/mL and 26560 hr*ng/mL and 36030 hr*ng/mL and 23890 hr*ng/mL and 23030 hr*ng/mL and 24840 hr*ng/mL and 20700* hr*ng/mL
same,Accumulation Ratio AUC tau,[6],3.99
same,Accumulation Ratio Cmax,[6],3.28
same,Accumulation_Index,[6],3.18
same,"Cavg, ss",[6],3357 ng/mL
same,"Cmin, SS",[6],2812 ng/mL
same,"AUCtau, Day 1",[7],13270 ng·h/mL and 8280 ng·h/mL and 10790 ng·h/mL and 9731 ng·h/mL and 6976 ng·h/mL and 9166 ng·h/mL and 14840 ng·h/mL and 11840 ng·h/mL
same,Accumulation Ratio AUC tau,[7],2.44 and 1.90 and 3.48 and 4.61 and 7.62 and 3.88 and 2.59 and 4.85 and 4.53
same,Accumulation Ratio Cmax,[7],2.17 and 1.80 and 3.20 and 4.06 and 4.80 and 2.80 and 2.38 and 4.63 and 3.68
same,Accumulation_Index,[7],2.18 and 2.39 and 2.99 and 3.31 and 5.51 and 2.43 and 2.20 and 4.17 and 3.42
same,"Cavg, ss",[7],2695 ng/mL and 1308 ng/mL and 3126 ng/mL and 3738 ng/mL and 4432 ng/mL and 2963 ng/mL and 3206 ng/mL and 4267 ng/mL and 4474 ng/mL
same,"Cmax, Day 1",[7],1020 ng/mL and 1190 ng/mL and 1030 ng/mL and 1150 ng/mL and 1650 ng/mL and 1360 ng/mL
same,"Cmax, SS",[7],3860 ng/mL and 1840 ng/mL and 3810 ng/mL and 4140 ng/mL and 4940 ng/mL and 3220 ng/mL and 3930 ng/mL and 4720 ng/mL and 5010 ng/mL
